US6344458B1, “Piperazine ethylamide derivatives” (American Home Products Corporation, priority 1998, dated 2002)
Counter-ions that a name gives are not always drawn.

Assays:
human 5HT1A receptor [1] = biological target: T1, human 5HT1A receptor (Homo sapiens, UniProt P08908); assay: 5-HT1A Receptor Binding Assay ([3H] 8-OH-DPAT displacement); conditions: displacement of [3H] 8-OH-DPAT, CHO cells stably transfected with human 5HT1A receptor
T1 construct: expressed in transfected cells; host or cells: CHO cells (stably transfected)
T1 sequence (P08908 1-422): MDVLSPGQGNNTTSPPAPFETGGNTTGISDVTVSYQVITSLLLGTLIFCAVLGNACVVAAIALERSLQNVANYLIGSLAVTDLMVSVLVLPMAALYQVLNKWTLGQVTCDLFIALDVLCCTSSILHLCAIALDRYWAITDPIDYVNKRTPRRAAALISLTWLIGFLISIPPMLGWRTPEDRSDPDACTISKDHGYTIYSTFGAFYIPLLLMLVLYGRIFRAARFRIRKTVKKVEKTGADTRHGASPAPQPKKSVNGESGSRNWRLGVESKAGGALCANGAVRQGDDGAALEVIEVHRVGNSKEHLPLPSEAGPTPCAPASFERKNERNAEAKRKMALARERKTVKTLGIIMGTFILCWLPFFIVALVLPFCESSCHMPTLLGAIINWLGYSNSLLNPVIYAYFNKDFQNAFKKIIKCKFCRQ
Description: 5-HT1A Receptor Binding Assay
High affinity for the serotonin 5-HT1A receptor was established by testing a compound's ability to displace [^3H] 8-OH-DPAT binding in CHO cells stably transfected with the human 5HT1A receptor. Stably transfected CHO cells are grown in DMEM containing 10% heat inactivated FBS and non-essential amino acids. Cells are scraped off the plate, transferred to centrifuge tubes, and washed twice by centrifugation (2000 rpm for 10 min., 4° C.) in buffer (50 mM Tris pH 7.5). The resulting pellets are aliquoted and placed at −80° C. On the day of assay, the cells are thawed on ice and resuspended in buffer. The binding assay is performed in a 96 well microtiter plate in a total volume of 250 μL. Non-specific binding is determined in the presence of […] 5-HT, final ligand concentration is 1.5 nM. Following a 30 minute incubation at room temperature, the reaction is terminated by the addition of ice cold buffer and rapid filtration through a GF/B filter presoaked for 30 minutes in 0.5% PEI. Compounds are initially tested in a single point assay to determine percent inhibition at […], and Ki values are determined for the active compounds.

human 5HT1A receptor [2] = biological target: T1, human 5HT1A receptor; assay: 5-HT1A Receptor Intrinsic Activity Assay (reversal of forskolin-stimulated cAMP); type: cell-based; conditions: for Emax: agonist activity, cAMP, forskolin-stimulated CHO cells with human 5-HT1A receptor
Description: 5-HT1A Receptor Intrinsic Activity Assay
The intrinsic activity of compounds of the present invention was established by testing the claimed compounds ability to reverse the stimulation of cyclic adenosinemonophosphate (cAMP) in CHO cells stably transfected with the human 5-HT1A receptor.
Stably transfected CHO cells were grown in DMEM containing 10% heat inactivated FBS and non-essential amino acids. The cells are plated at a density of […] per well in a 24 well plate and incubated for 2 days in a CO2 incubator. On the second day, the media is replaced with 0.5 mL treatment buffer (DMEM+25 mM HEPES, 5 mM theophylline, 10 μM pargyline) and incubated for 10 minutes at 37° C. Wells are treated with forskolin (1 μM final concentration) followed immediately by the test compound (0.1 and 1 μM for initial screen) and incubated for an additional 10 minutes at 37° C. The reaction is terminated by removal of the media and addition of 0.5 mL ice cold assay buffer (supplied in the RIA kit). Plates are stored at −20° C. prior to assessment of cAMP formation by RIA. EC50 values are determined for the active test compounds. Compounds shown to have no agonist activities (Emax=0%) are further analyzed for their ability to reverse agonist induced activity. In separate experiments, 6 concentrations of antagonist are preincubated for 20 minutes prior to the addition of agonist and forskolin. Cells are harvested as described above. The cAMP kit is supplied by Amersham and the RIA is performed as per kit instructions, and calculations of IC50 performed by GraphPad Prism.

Compound | melting point | Ki (human 5HT1A receptor [1]) | Emax (human 5HT1A receptor [2]) | also measured
COc1ccccc1N1CCN(CCN(Cc2ccccc2)C(=O)C2CCCCC2)CC1 [Compound 2, Cyclohexanecarboxylic acid benzyl-{2-[4-(2-methoxy-phenyl)-piperazin-1-yl]-ethyl}-amide] |  | 1.8 nM | 36% | EC50 (human 5HT1A receptor [2]; agonist mode, reversal of forskolin-stimulated cAMP in CHO cells): 4.2 nM
COc1ccccc1N1CCN(CCNC(=O)c2ccccc2)CC1 (as salt: fumaric acid salt) [Compound 1, N-{2-[4-(2-Methoxy-phenyl)-piperazin-1-yl]-ethyl}-benzamide] | 136 to 138 °C |  |  | 
COc1ccccc1N1CCN(CCN(Cc2ccccc2)C(=O)C2CCCCC2)CC1 (as salt: fumarate) [Compound 2, Cyclohexanecarboxylic acid benzyl-{2-[4-(2-methoxy-phenyl)-piperazin-1-yl]-ethyl}-amide] | 144 to 146 °C |  |  | 
COc1ccccc1N1CCN(CCN(Cc2cccc3ccccc23)C(=O)C2CCCCC2)CC1 (as salt: fumarate) [Compound 4, Cyclohexanecarboxylic acid{2-[4-(2-methoxy-phenyl)-piperazin-1-yl]-ethyl}-naphthalen-1-ylmethl-amide] | 204 to 206 °C |  |  | 
COc1ccccc1N1CCN(CCN(Cc2cccc3ccccc23)C(=O)C2CCCCC2)CC1 [Compound 4, Cyclohexanecarboxylic acid{2-[4-(2-methoxy-phenyl)-piperazin-1-yl]-ethyl}-naphthalen-1-ylmethl-amide] |  | 26 nM | 88% | 

Further lines, with some results ahead:

melting point | Ki (human 5HT1A receptor [1]) | Emax (human 5HT1A receptor [2]) | Compound | also measured
103 to 105 °C |  |  | COc1ccccc1N1CCN(CCN(CCCc2ccccc2)C(=O)C2CCCCC2)CC1 (as salt: fumarate) [Compound 8, Cyclohexanecarboxylic acid-{2-[4-(2-methoxy-phenyl)-piperazin-1-yl]-ethyl}-(3-phenyl-propyl)-amide] | 
107 to 108 °C |  |  | COc1ccccc1N1CCN(CCNC(=O)CCc2ccccc2)CC1 (as salt: fumaric acid salt) [Compound 7, N-{2-[4-(2-Methoxy-phenyl)-piperazin-1-yl]-ethyl}-3-phenyl-propionamide] | 
 | 1.2 nM | 0% | COc1ccccc1N1CCN(CCN(Cc2ccc3ccccc3c2)C(=O)C2CCCCC2)CC1 [Compound 6, Cyclohexanecarboxylic acid-{2-[4-(2-methoxy-phenyl)-piperazin-1-yl]-ethyl}-naphthalen-2-ylmethyl-amide] | IC50 (human 5HT1A receptor [2]; antagonist mode, reversal of agonist induced activity, preincubated 20 minutes before agonist and forskolin): 24 nM
 | 20 nM | 77% | COc1ccccc1N1CCN(CCN(CCCc2ccccc2)C(=O)C2CCCCC2)CC1 [Compound 8, Cyclohexanecarboxylic acid-{2-[4-(2-methoxy-phenyl)-piperazin-1-yl]-ethyl}-(3-phenyl-propyl)-amide] | 
